US6225329A, “Modulators of protein tyrosine phosphatases (PTPases)” (Novo Nordisk A/S, priority 1998, dated 2001)

What was measured:
[1] = osteoporotics; cited from earlier work
[2] = tested on: osteoblastic acid phosphatase; conditions: mitogenic concentrations of fluoride; cited from earlier work
PTP1B = biological target: T1, PTP1B (Homo sapiens, UniProt P18031); test: Inhibition of classical PTP1B (truncated, first 321 amino acids) with p-nitrophenyl phosphate substrate; format: biochemical; conditions: p-nitrophenyl phosphate 0.16 to 10 mM; 100 mM sodium acetate pH 5.5; 25° C., 60 minutes
T1 construct: a truncated form of PTP1B (corresponding to the first 321 amino acids); made in house; host or cells: E. coli
T1 sequence (P18031 1-321): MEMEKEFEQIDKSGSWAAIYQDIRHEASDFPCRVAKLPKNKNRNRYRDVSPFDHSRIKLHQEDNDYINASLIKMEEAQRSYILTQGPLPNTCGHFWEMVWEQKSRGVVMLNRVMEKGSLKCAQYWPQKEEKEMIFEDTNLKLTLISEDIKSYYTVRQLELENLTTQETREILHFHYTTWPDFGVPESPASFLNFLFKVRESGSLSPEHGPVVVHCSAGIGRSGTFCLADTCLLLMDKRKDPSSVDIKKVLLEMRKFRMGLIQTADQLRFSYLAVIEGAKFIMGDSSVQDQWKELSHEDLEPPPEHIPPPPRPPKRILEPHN
Experimental: The assay conditions are as follows. […] The buffer used was 100 mM sodium acetate pH 5.5, 50 mM sodium chloride, 0.1% (w/v) bovine serum albumin and 5 mM dithiothreitol (total volume […]). The reaction was started by addition of the enzyme and carried out in microtiter plates at 25° C. for 60 minutes. The reactions are stopped by addition of NaOH. […] Inhibition is expressed as Ki values in μM.

[3] = tested on: osteoblast-like cell line UMR106; conditions: cited from earlier work; for stimulation of cell growth relative to vanadate: compared with vanadate
SSTR1 = SSTR1 stably expressed in CHO-K1 cells; pertussis toxin-sensitive; cited from earlier work
platelets = conditions: cited from earlier work
skeletal muscle = conditions: cited from earlier work
adipocytes = conditions: cited from earlier work
B cell = conditions: compared to T cells; cited from earlier work
osteoblast = conditions: cited from earlier work

## F [fluoride]
[1]
  spinal bone density: increase spinal bone density in osteoporotics
[2]
  sensitivity of osteoblastic acid phosphatase: highly sensitive

## O=C(O)C(=O)Nc1cc2ccccc2cc1C(=O)O [Example 2, 3-(Oxalyl-amino)naphthalene-2-carboxylic acid]
PTP1B
  Ki: 9.9 µM

## O=S(=O)([O-])[O-].[O]=[V+2] [vanadyl]
[3]
  growth of UMR106 cells: increased the growth
  stimulation of cell growth relative to vanadate: stronger stimulators of cell growth than vanadate

## somatostatin
SSTR1
  stimulation of PTPase activity: can stimulate PTPase activity

## [O]=[V]([O-])([O-])[O-] [vanadate]
[3]; cell alkaline phosphatase activity
  cell differentiation as measured by cell alkaline phosphatase activity: able to regulate the cell differentiation
[3]
  growth of UMR106 cells: increased the growth

## pervanadate
platelets
  tyrosine phosphorylation, secretion and aggregation of platelets: significant increase in tyrosine phosphorylation, secretion and aggregation
[3]
  growth of UMR106 cells: increased the growth
  stimulation of cell growth relative to vanadate: stronger stimulators of cell growth than vanadate
Skeletal muscle
  insulin response when added to whole cells: almost full insulin response
adipocytes
  insulin response when added to whole cells: almost full insulin response

## Cc1occc(=O)c1[O-].Cc1occc(=O)c1[O-].[O]=[V+2] [BMLOV]
B cell
  B cell selective apoptosis: apparent B cell selective apoptosis

## [O]=[V]([O-])([O-])[O-] [orthovanadate]
osteoblast
  osteoblast proliferation and matrix formation: appears to enhance osteoblast proliferation and matrix formation
